# Assays:
# [1] = system: rats injected icv with STZ (spatial memory); assay: Morris water maze spatial memory after icv STZ; format: in vivo, Sprague-Dawley rats; conditions: icv STZ + chronic ladostigil 1 mg/kg vs icv STZ only
# Protocol: (§1) Male Sprague-Dawley rats (63) weighing 320-340 g, aged 4 months, were anesthetized by an intraperitoneal injection of Equithesin 0.3 ml/kg. STZ (0.5 mg) dissolved in 2 μl artificial cerebrospinal fluid (CSF) was injected into each lateral ventricle of 45 rats. The stereotaxic co-ordinates for icv injection were: 0.9 mm posterior, 1.8 mm lateral and 3.8 mm ventral from the bregma level. Control rats (18) received a bilateral injection of 2 μl artificial CSF. STZ-injected rats (25) were given ladostigil (1 mg/kg of the hemitartrate salt/day) orally in a volume of (1 ml/kg) from one week before, until 1 or 8 weeks after icv STZ. The remaining 20 rats received 1 ml/kg water. The rats were housed two per cage with free access to food and water until the behavioral, enzymatic and cytochemical measurements were completed. […]
# Group means of 3 measures in the object and place recognition tests, duration of exploration in first and second phases and discrimination index were submitted to one way ANOVA. Mean daily escape latencies for trial 1 and trial 2 in the MWM in each group were analyzed by repeated measures ANOVA for DAY and GROUP followed by Duncan's post hoc test where appropriate. Histological data were analyzed by univariate ANOVA followed by Duncan's post hoc test. […]
# [2] = system: NT immunoreactivity in astrocytes; assay: Example 2: astrocyte activation and NT immunoreactivity in hippocampus and regions bordering lateral ventricles after icv STZ; format: in vivo, Sprague-Dawley rats; conditions: 1 mg/kg/day orally, one week after icv STZ
# Protocol: as §1
# Nitrotyrosine, (NT) a marker of nitrative/oxidative stress, was stained with rabbit anti-nitrotyrosine from Upstate (Lake Placid, N.Y., USA), diluted 1:100 followed by the secondary donkey anti-rabbit conjugated with horseradish peroxidase from Chemicon (Temecula, Calif., USA), was diluted 1:200. […] Images were obtained by bright field microscopy and quantitative assessments of appropriate markers were made using AnalySIS software. […]
# For each quantitative analysis of NT-immunoreactive astrocytes, 3 sections were sampled from each rat. […]
# [3] = system: cultured neuronal cells; conditions: low concentrations; cited from earlier work
smiles,measurement,setting,value
"C#CCN[C@@H]1CCc2ccc(OC(=O)N(C)CC)cc21 [ladostigil, R(+)-6-(N-methyl,N-ethyl-carbamoyloxy)-N′-propargyl-1-aminoindan]","Escape latency in Morris water maze, trial 1, means over 5 days",[1],rats given icv STZ only had significantly higher latencies than those injected with CSF or STZ and treated with ladostigil
same,"Astrocyte activation and NT immunoreactivity in CA1, corpus callosum, medial and lateral septum",[2],reduced both astrocyte activation and NT immunoreactivity in these brain regions to the level of that seen in CSF-injected controls
same,Cytotoxicity induced by ROS and NO in cultured neuronal cells,[3],prevent cytotoxicity
